Data: ChEMBL document CHEMBL1124752, “Cyclobut-A and cyclobut-G: broad-spectrum antiviral agents with potential utility for the therapy of AIDS” (J Med Chem, 1990)
≈ marks a conversion by molar mass, not a printed value.

Experiments:
[1] = test system: Murid betaherpesvirus 1; assay: Number of survivors per number of systemic MCMV infected mice treated with 33.4 mg/kg/day; 14/15; type: functional
[2] = test system: Human alphaherpesvirus 2; assay: Tested for the effective dose required to inhibit HSV-2 encephalitis in infected mice; type: functional
[3] = test system: Murid betaherpesvirus 1; assay: Number of survivors per number of systemic MCMV infected mice treated with 100 mg/kg/day; 15/15; type: functional
[4] = test system: Human alphaherpesvirus 2; assay: In vitro antiviral activity tested against herpesvirus, HSV-2, X-79 strain by plaque reduction assay in human foreskin fibroblasts; type: functional
[5] = test system: Human betaherpesvirus 5; assay: In vitro antiviral activity tested against herpesvirus, HCMV, Davis strain by plaque reduction assay in human foreskin fibroblasts; type: functional
[6] = test system: Human immunodeficiency virus 1; assay: Tested for the determination of percentage protection at 10 uM against HIV-1 in ATH8 cells; type: functional, ATH-8
[7] = test system: Murid betaherpesvirus 1; assay: Tested for mean day to death of nonsurvivors against systemic MCMV infection in mice at 3.8 mg/kg/day; type: functional
[8] = test system: Human alphaherpesvirus 2; assay: In vitro antiviral activity tested against herpesvirus, HSV-2, JEN strain by plaque reduction assay in human foreskin fibroblasts; type: functional
[9] = test system: Human immunodeficiency virus 1; assay: Tested for the determination of percentage protection at 1 uM against HIV-1 in ATH8 cells; type: functional, ATH-8
[10] = test system: Human alphaherpesvirus 2; assay: Number of survivors per number of HSV-2 infected mice treated with 7.8 mg/kg/day; 5/10; type: functional
[11] = test system: Human alphaherpesvirus 1; assay: Number of survivors per number of HSV-1 infected mice treated with 75 mg/kg/day; 10/10; type: functional
[12] = test system: Human immunodeficiency virus 1; assay: Tested for the determination of percentage protection at 100 uM against HIV-1 in ATH8 cells; type: functional, ATH-8
[13] = test system: Human immunodeficiency virus 1; assay: Tested for the determination of percentage protection at 50 uM against HIV-1 in ATH8 cells; type: functional, ATH-8
[14] = test system: Human alphaherpesvirus 2; assay: Tested for mean day to death of nonsurvivors against HSV-2 encephalitis in mice at 31.2 mg/kg/day; type: functional
[15] = test system: Human alphaherpesvirus 3; assay: In vitro antiviral activity tested against herpesvirus, VZV, OKA strain by plaque reduction assay in human foreskin fibroblasts; type: functional
[16] = test system: Human immunodeficiency virus 1; assay: Tested for the determination of percentage toxicity at 50 uM against HIV-1 in ATH8 cells; type: organism-based; details: human immunodeficiency virus 1, ath-8, 50 µM
[17] = test system: Human alphaherpesvirus 2; assay: Number of survivors per number of HSV-2 infected mice treated with 31.2 mg/kg/day; 9/10; type: functional
[18] = test system: Human alphaherpesvirus 3; assay: In vitro antiviral activity tested against herpesvirus, VZV, Ellen strain by plaque reduction assay in human foreskin fibroblasts; type: functional
[19] = test system: Murid betaherpesvirus 1; assay: In vitro antiviral activity tested against herpesvirus, MCMV, Smith strain by plaque reduction assay in mouse embryo fibroblasts; type: functional
[20] = test system: Human alphaherpesvirus 1; assay: Number of survivors per number of HSV-1 infected mice treated with 4.7 mg/kg/day; 6/10; type: functional
[21] = test system: Human immunodeficiency virus 1; assay: Tested for the determination of percentage toxicity at 1 uM against HIV-1 in ATH8 cells; type: organism-based; details: human immunodeficiency virus 1, ath-8, 1 µM
[22] = test system: Human betaherpesvirus 5; assay: In vitro antiviral activity tested against herpesvirus, HCMV, CH strain by plaque reduction assay in human foreskin fibroblasts; type: functional
[23] = test system: Human betaherpesvirus 5; assay: In vitro antiviral activity tested against herpesvirus, HCMV, AD169 strain by plaque reduction assay in human foreskin fibroblasts; type: functional
[24] = test system: Human immunodeficiency virus 1; assay: Tested for the determination of percentage toxicity at 100 uM against HIV-1 in ATH8 cells; type: organism-based; details: human immunodeficiency virus 1, ath-8, 100 µM
[25] = test system: Human alphaherpesvirus 2; assay: In vitro antiviral activity tested against herpesvirus, HSV-2, HEET strain by plaque reduction assay in human foreskin fibroblasts; type: functional
[26] = test system: Murid betaherpesvirus 1; assay: Tested for mean day to death of nonsurvivors against systemic MCMV infection in mice at 33.4 mg/kg/day; type: functional
[27] = test system: Human alphaherpesvirus 2; assay: Tested for mean day to death of nonsurvivors against HSV-2 encephalitis in mice at 7.8 mg/kg/day; type: functional
[28] = test system: Murid betaherpesvirus 1; assay: Number of survivors per number of systemic MCMV infected mice treated with 11.2 mg/kg/day; 14/15; type: functional
[29] = test system: Human alphaherpesvirus 2; assay: Number of survivors per number of HSV-2 infected mice treated with 125 mg/kg/day; 10/10; type: functional
[30] = test system: Human alphaherpesvirus 2; assay: In vitro activity tested against herpesvirus, HSV-2, MS strain by plaque reduction assay in human foreskin fibroblasts; type: functional
[31] = test system: Human alphaherpesvirus 1; assay: In vitro antiviral activity against herpesvirus, HSV-1, E-377 strain by plaque reduction assay in human foreskin fibroblasts; type: functional
[32] = test system: Human alphaherpesvirus 1; assay: Tested for mean day to death of nonsurvivors against HSV-1 infection in mice at 4.7 mg/kg/day; type: functional
[33] = species: Homo sapiens; assay: The drug concentration was determined to reduce proliferation of human foreskin fibroblasts to 50% of untreated controls in proliferation assay; type: functional; details: read-out: ID50 (the source's name)
[34] = test system: Human betaherpesvirus 5; assay: In vitro antiviral activity tested against herpesvirus, HCMV, LA strain by plaque reduction assay in human foreskin fibroblasts; type: functional
[35] = test system: Human alphaherpesvirus 1; assay: Number of survivors per number of HSV-1 infected mice treated with 18.7 mg/kg/day; 10/10; type: functional
[36] = test system: Murid betaherpesvirus 1; assay: Tested for the effective dose required to inhibit systemic MCMV in infected mice; type: functional
[37] = test system: Murid betaherpesvirus 1; assay: Tested for mean day to death of nonsurvivors against systemic MCMV infection in mice at 11.2 mg/kg/day; type: functional
[38] = test system: Human immunodeficiency virus 1; assay: Tested for the determination of percentage toxicity at 10 uM against HIV-1 in ATH8 cells; type: organism-based; details: human immunodeficiency virus 1, ath-8, 10 µM
[39] = test system: Human alphaherpesvirus 1; assay: Tested for the effective dose required to inhibit HSV-1 in infected mice; type: functional
[40] = test system: Murid betaherpesvirus 1; assay: Number of survivors per number of systemic MCMV infected mice treated with 3.8 mg/kg/day; 4/15; type: functional
[41] = test system: Human betaherpesvirus 5; assay: In vitro antiviral activity tested against herpesvirus, HCMV, EC strain by plaque reduction assay in human foreskin fibroblasts; type: functional
[42] = read-out: ED50 (the source's name)
[43] = read-out: ID50 (the source's name)

Nc1ncnc2c1ncn2[C@@H]1C[C@H](CO)[C@H]1CO
Survivors / treated [1]: 14 | ED50 [2]: 9.7 mg/kg/day | Survivors / treated [3]: 15 | EC50 [4, 42]: 1.8 µg/mL (≈ 7.22 µM) | IC50 [4, 43]: > 100 µg/mL | EC50 [5, 42]: 0.9 µg/mL (≈ 3.61 µM) | IC50 [5, 43]: > 100 µg/mL | Protection [6]: 63% | MDD [7]: 5.3 | EC50 [8, 42]: 2.3 µg/mL (≈ 9.23 µM) | IC50 [8, 43]: > 100 µg/mL | Protection [9]: 47% | Survivors / treated [10]: 5 | Survivors / treated [11]: 10 | Protection [12]: 52% | Protection [13]: 48% | MDD [14]: 10 | EC50 [15, 42]: 2 µg/mL (≈ 8.02 µM) | IC50 [15, 43]: > 100 µg/mL | Cytotoxity [16]: 42% | Survivors / treated [17]: 9 | EC50 [18, 42]: 2.1 µg/mL (≈ 8.42 µM) | IC50 [18, 43]: > 100 µg/mL | EC50 [19, 42]: 0.05 µg/mL (≈ 0.201 µM) | IC50 [19, 43]: > 100 µg/mL | Survivors / treated [20]: 6 | Cytotoxity [21]: 11% | EC50 [22, 42]: 0.9 µg/mL (≈ 3.61 µM) | IC50 [22, 43]: > 100 µg/mL | EC50 [23, 42]: 3.7 µg/mL (≈ 14.8 µM) | IC50 [23, 43]: > 100 µg/mL | Cytotoxity [24]: 44% | EC50 [25, 42]: 2.2 µg/mL (≈ 8.83 µM) | IC50 [25, 43]: > 100 µg/mL | MDD [26]: 5 | MDD [27]: 10.8 | Survivors / treated [28]: 14 | Survivors / treated [29]: 10 | EC50 [30, 42]: 1.6 µg/mL (≈ 6.42 µM) | IC50 [30, 43]: > 100 µg/mL | EC50 [31, 42]: 1 µg/mL (≈ 4.01 µM) | IC50 [31, 43]: > 100 µg/mL | MDD [32]: 7.5 | IC50 [33]: 7.7 µg/mL (≈ 30.9 µM) | EC50 [34, 42]: 1 µg/mL (≈ 4.01 µM) | IC50 [34, 43]: > 100 µg/mL | Survivors / treated [35]: 10 | ED50 [36]: 2.7 mg/kg/day | MDD [37]: 6 | Cytotoxity [38]: 32% | ED50 [39]: < 4.7 mg/kg/day | Survivors / treated [40]: 4 | EC50 [41, 42]: 2.2 µg/mL (≈ 8.83 µM) | IC50 [41, 43]: > 100 µg/mL
